Values quoted from earlier work, collected in US20100112083A1, “PHARMACEUTICAL PRODUCT FOR MODULATING BONE FORMATION, PROCESS FOR MODULATING BONE FORMATION” (priority 2007, published 2010).

Tested on: mesenchymal stem cells
Details: by activating sirtuin protein Sirt1

SMILES: Oc1ccc(/C=C/c2cc(O)cc(O)c2)cc1 [trans-resveratrol]
- differentiation of mesenchymal stem cells into osteoblasts: promoted the selective differentiation
